# According to US8952024B2, “Herbicidal pyrimidone derivatives” (E I du Pont de Nemours and Company, priority 2009, dated 2015):
# Where two headings read alike, the source gives them in different places.
# Tests used:
# Test in all cases: Test A pre-/postemergence plant response
# Assay type in all cases: in vivo
# [1] = system: velvetleaf (Abutilon theophrasti); details: for pest or weed control at 125 g/ha / pest or weed control at 500 g/ha: Abutilon theophrasti, 240 h
# Outline: (§1)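 Plants grown from seed in a loam soil and sand mix received test compounds both as a preemergence soil spray and, at the same time, as a postemergence spray at the one- to two-leaf stage. Injury was judged visually against untreated controls roughly ten days later, 0 meaning no effect and 100 complete control.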
# [2] = system: pigweed (Amaranthus retroflexus); details: for pest or weed control at 125 g/ha / pest or weed control at 500 g/ha: Amaranthus retroflexus, 240 h
# Outline: as §1
# [3] = system: morningglory (Ipomoea spp.); details: for pest or weed control at 125 g/ha / pest or weed control at 500 g/ha: Ipomoea, 240 h
# Outline: as §1
# [4] = system: giant foxtail (Setaria faberii); details: for pest or weed control at 125 g/ha / pest or weed control at 500 g/ha: Setaria faberi, 240 h
# Outline: as §1
# [5] = system: barnyardgrass (Echinochloa crus-galli); details: for pest or weed control at 125 g/ha / pest or weed control at 500 g/ha: Echinochloa crus-galli, 240 h
# Outline: as §1
# [6] = system: large crabgrass (Digitaria sanguinalis); details: for pest or weed control at 125 g/ha / pest or weed control at 500 g/ha: Digitaria sanguinalis, 240 h
# Outline: as §1
# corn (Zea mays) = system: corn (Zea mays)
# Outline: as §1
# [7] = system: wheat (Triticum aestivum); details: for plant injury at 125 g/ha / plant injury at 500 g/ha: Triticum aestivum, 240 h
# Outline: as §1
# [8] = Postemergence, 125 g ai/ha, visual injury, 0 to 100 scale (0 no effect, 100 complete control), approx. ten days
# [9] = Postemergence, 500 g ai/ha, 0 to 100 scale, 0 = no effect, 100 = complete control, approx. ten days
# [10] = Preemergence, 125 g ai/ha, 0 to 100 scale, 0 = no effect, 100 = complete control
# [11] = Preemergence, 500 g ai/ha, visual injury, 0 to 100 scale (0 no effect, 100 complete control), approx. ten days
smiles,measurement,setting,value
"O=C1CCCC(O)=C1C(=O)c1cnc(-c2ccccc2)n(Cc2ccccc2)c1=O [Compound 17, 5-[(2-hydroxy-6-oxo-1-cyclohexen-1-yl)carbonyl]-2-phenyl-3-(phenylmethyl)-4(3H)-pyrimidinone]",pest or weed control at 125 g/ha,"[1]; post-emergence, Postemergence, 125 g ai/ha, visual injury, 0 to 100 scale (0 no effect, 100 complete control), approx. ten days, read-out: Velvetleaf plant response rating",100%
same,pest or weed control at 500 g/ha,"[1]; post-emergence, Postemergence, 500 g ai/ha, 0 to 100 scale, 0 = no effect, 100 = complete control, approx. ten days, read-out: Plant response rating, Velvetleaf",100%
same,pest or weed control at 125 g/ha,"[1]; pre-emergence, Preemergence, 125 g ai/ha, 0 to 100 scale, 0 = no effect, 100 = complete control, read-out: Plant response rating, Velvetleaf",40%
same,pest or weed control at 500 g/ha,"[1]; pre-emergence, Preemergence, 500 g ai/ha, visual injury, 0 to 100 scale (0 no effect, 100 complete control), approx. ten days, read-out: Plant response rating, Velvetleaf",100%
same,pest or weed control at 125 g/ha,"[2]; post-emergence, Postemergence, 125 g ai/ha, visual injury, 0 to 100 scale (0 no effect, 100 complete control), approx. ten days, read-out: Pigweed plant response rating",80%
same,pest or weed control at 500 g/ha,"[2]; post-emergence, Postemergence, 500 g ai/ha, 0 to 100 scale, 0 = no effect, 100 = complete control, approx. ten days, read-out: Plant response rating, Pigweed",100%
same,pest or weed control at 125 g/ha,"[2]; pre-emergence, Preemergence, 125 g ai/ha, 0 to 100 scale, 0 = no effect, 100 = complete control, read-out: Plant response rating, Pigweed",80%
same,pest or weed control at 500 g/ha,"[2]; pre-emergence, Preemergence, 500 g ai/ha, visual injury, 0 to 100 scale (0 no effect, 100 complete control), approx. ten days, read-out: Plant response rating, Pigweed",90%
same,pest or weed control at 125 g/ha,"[3]; post-emergence, Postemergence, 125 g ai/ha, visual injury, 0 to 100 scale (0 no effect, 100 complete control), approx. ten days, read-out: Morningglory plant response rating",20%
same,pest or weed control at 500 g/ha,"[3]; post-emergence, Postemergence, 500 g ai/ha, 0 to 100 scale, 0 = no effect, 100 = complete control, approx. ten days, read-out: Plant response rating, Morningglory",70%
same,pest or weed control at 125 g/ha,"[3]; pre-emergence, Preemergence, 125 g ai/ha, 0 to 100 scale, 0 = no effect, 100 = complete control, read-out: Plant response rating, Morningglory",0%
same,pest or weed control at 500 g/ha,"[3]; pre-emergence, Preemergence, 500 g ai/ha, visual injury, 0 to 100 scale (0 no effect, 100 complete control), approx. ten days, read-out: Plant response rating, Morningglory",10%
same,pest or weed control at 125 g/ha,"[4]; post-emergence, Postemergence, 125 g ai/ha, visual injury, 0 to 100 scale (0 no effect, 100 complete control), approx. ten days, read-out: Foxtail, Giant plant response rating",0%
same,pest or weed control at 500 g/ha,"[4]; post-emergence, Postemergence, 500 g ai/ha, 0 to 100 scale, 0 = no effect, 100 = complete control, approx. ten days, read-out: Plant response rating, Foxtail, Giant",30%
same,pest or weed control at 125 g/ha,"[4]; pre-emergence, Preemergence, 125 g ai/ha, 0 to 100 scale, 0 = no effect, 100 = complete control, read-out: Plant response rating, Foxtail, Giant",0%
same,pest or weed control at 500 g/ha,"[4]; pre-emergence, Preemergence, 500 g ai/ha, visual injury, 0 to 100 scale (0 no effect, 100 complete control), approx. ten days, read-out: Plant response rating, Foxtail, Giant",20%
same,pest or weed control at 125 g/ha,"[5]; post-emergence, Postemergence, 125 g ai/ha, visual injury, 0 to 100 scale (0 no effect, 100 complete control), approx. ten days, read-out: Barnyardgrass plant response rating",10%
same,pest or weed control at 500 g/ha,"[5]; post-emergence, Postemergence, 500 g ai/ha, 0 to 100 scale, 0 = no effect, 100 = complete control, approx. ten days, read-out: Plant response rating, Barnyardgrass",70%
same,pest or weed control at 125 g/ha,"[5]; pre-emergence, Preemergence, 125 g ai/ha, 0 to 100 scale, 0 = no effect, 100 = complete control, read-out: Plant response rating, Barnyardgrass",0%
same,pest or weed control at 500 g/ha,"[5]; pre-emergence, Preemergence, 500 g ai/ha, visual injury, 0 to 100 scale (0 no effect, 100 complete control), approx. ten days, read-out: Plant response rating, Barnyardgrass",80%
same,pest or weed control at 125 g/ha,"[6]; post-emergence, Postemergence, 125 g ai/ha, visual injury, 0 to 100 scale (0 no effect, 100 complete control), approx. ten days, read-out: Crabgrass, Large plant response rating",10%
same,pest or weed control at 500 g/ha,"[6]; post-emergence, Postemergence, 500 g ai/ha, 0 to 100 scale, 0 = no effect, 100 = complete control, approx. ten days, read-out: Plant response rating, Crabgrass, Large",70%
same,pest or weed control at 125 g/ha,"[6]; pre-emergence, Preemergence, 125 g ai/ha, 0 to 100 scale, 0 = no effect, 100 = complete control, read-out: Plant response rating, Crabgrass, Large",20%
same,pest or weed control at 500 g/ha,"[6]; pre-emergence, Preemergence, 500 g ai/ha, visual injury, 0 to 100 scale (0 no effect, 100 complete control), approx. ten days, read-out: Plant response rating, Crabgrass, Large",100%
same,plant injury at 125 g/ha,"corn (Zea mays); Zea mays, post-emergence, 240 h, Postemergence, 125 g ai/ha, visual injury, 0 to 100 scale (0 no effect, 100 complete control), approx. ten days, read-out: Corn plant response rating",0%
same,"Corn plant response rating (crop injury, 0 = no effect, 100 = complete kill) at 500 g/ha","corn (Zea mays); Zea mays, post-emergence, 240 h, Postemergence, 500 g ai/ha, 0 to 100 scale, 0 = no effect, 100 = complete control, approx. ten days",10%
same,"Corn plant response rating (crop injury, 0 = no effect, 100 = complete kill) at 125 g/ha","corn (Zea mays); Zea mays, pre-emergence, 240 h, Preemergence, 125 g ai/ha, 0 to 100 scale, 0 = no effect, 100 = complete control",0%
same,"Corn plant response rating (crop injury, 0 = no effect, 100 = complete kill) at 500 g/ha","corn (Zea mays); Zea mays, pre-emergence, 240 h, Preemergence, 500 g ai/ha, visual injury, 0 to 100 scale (0 no effect, 100 complete control), approx. ten days",0%
same,plant injury at 125 g/ha,"[7]; post-emergence, Postemergence, 125 g ai/ha, visual injury, 0 to 100 scale (0 no effect, 100 complete control), approx. ten days, read-out: Wheat plant response rating",0%
same,plant injury at 500 g/ha,"[7]; post-emergence, Postemergence, 500 g ai/ha, 0 to 100 scale, 0 = no effect, 100 = complete control, approx. ten days, read-out: Plant response rating, Wheat",10%
same,plant injury at 125 g/ha,"[7]; pre-emergence, Preemergence, 125 g ai/ha, 0 to 100 scale, 0 = no effect, 100 = complete control, read-out: Plant response rating, Wheat",0%
same,plant injury at 500 g/ha,"[7]; pre-emergence, Preemergence, 500 g ai/ha, visual injury, 0 to 100 scale (0 no effect, 100 complete control), approx. ten days, read-out: Plant response rating, Wheat",0%
Cc1ccc(-n2c(-c3ccccc3)ncc(C(=O)C3=C(O)CCCC3=O)c2=O)c(C)c1 [Compound 28],Velvetleaf plant response rating,[1]; [8],100
same,"Plant response rating, Velvetleaf",[1]; [9],100
same,"Plant response rating, Velvetleaf",[1]; [10],20
same,"Plant response rating, Velvetleaf",[1]; [11],80
same,Pigweed plant response rating,[2]; [8],100
same,"Plant response rating, Pigweed",[2]; [9],100
same,"Plant response rating, Pigweed",[2]; [10],80
same,"Plant response rating, Pigweed",[2]; [11],100
same,Morningglory plant response rating,[3]; [8],0
same,"Plant response rating, Morningglory",[3]; [9],10
same,"Plant response rating, Morningglory",[3]; [10],20
same,"Plant response rating, Morningglory",[3]; [11],80
same,"Foxtail, Giant plant response rating",[4]; [8],30
same,"Plant response rating, Foxtail, Giant",[4]; [9],80
same,"Plant response rating, Foxtail, Giant",[4]; [10],0
same,"Plant response rating, Foxtail, Giant",[4]; [11],30
same,Barnyardgrass plant response rating,[5]; [8],30
same,"Plant response rating, Barnyardgrass",[5]; [9],90
same,"Plant response rating, Barnyardgrass",[5]; [10],10
same,"Plant response rating, Barnyardgrass",[5]; [11],70
same,"Crabgrass, Large plant response rating",[6]; [8],40
same,"Plant response rating, Crabgrass, Large",[6]; [9],80
same,"Plant response rating, Crabgrass, Large",[6]; [10],20
same,"Plant response rating, Crabgrass, Large",[6]; [11],60
same,Corn plant response rating,corn (Zea mays); [8],0
same,"Plant response rating, Corn",corn (Zea mays); [9],0
same,"Plant response rating, Corn",corn (Zea mays); [10],0
same,"Plant response rating, Corn",corn (Zea mays); [11],0
same,Wheat plant response rating,[7]; [8],0
same,"Plant response rating, Wheat",[7]; [9],0
same,"Plant response rating, Wheat",[7]; [10],0
same,"Plant response rating, Wheat",[7]; [11],0
